From ChEMBL document CHEMBL4837239, “Identification of Thieno[3,2-d]pyrimidine Derivatives as Dual Inhibitors of Focal Adhesion Kinase and FMS-like Tyrosine Kinase 3” (J Med Chem, 2021) come the findings set out here.

Data set [1] deals with MDA-MB-231. Nature of the data set: Antimetastatic activity against human MDA-MB-231 cells expressing firefly luciferase xenografted NSG orthotopic mouse model assessed as reduction in luminescence intensity at chest region at 70 mg/kg, po once daily measured for 2 weeks. Type of data set: functional, organism-based.
Data set [2] concerns the target T1, Mitogen-activated protein kinase; ERK1/ERK2 (Homo sapiens) (UniProt P27361+P28482). The data set can be described thus: Inhibition of ERK1/2 autophosphorylation in human HCT-116 cells at 0.5 to 5 uM incubated for 24 hrs by Western blot analysis. Particulars: dose 0.5-5 µM. Type of data set: cell-based.
Data set [3] deals with MDA-MB-231. Nature of the data set: Antiproliferative activity against human MDA-MB-231 cells assessed as growth inhibition measured after 72 hrs by CellTiter-Glo assay. Type of data set: functional. Particulars: Homo sapiens, MDA-MB-231.
Data set [4] has as its system MDA-MB-231. Nature of the data set: In vivo antitumor activity against human MDA-MB-231 cells xenografted in Balb/c mouse assessed as reduction in tumor weight at 40 to 70 mg/kg, po once daily measured for 16 days. The format is functional, organism-based. The note with it: dose 40-70 mg/kg, time 16.0 day.
Data set [5] has as its system MDA-MB-231. The data set can be described thus: Growth inhibition of anchorage-Independent human MDA-MB-231 cells assessed as decrease in number of colonies incubated for 72 hrs by MTT assay. Type of data set: functional, cell-based. Particulars: dose 1-10 µM. (In general: Tetrazolium dyes change colour on reduction, which living cells bring about.)
Data set [6] has as its system MDA-MB-231. The data set can be described thus: Induction of apoptosis in human MDA-MB-231 cells assessed apoptotic cell death at 10 uM incubated for 24 hrs by Annexin-V/PI analysis. The format is functional, cell-based.
The test system of data set [7] is HCT-116. Nature of the data set: Induction of apoptosis in human HCT-116 cells assessed as cleaved caspase-3 at 0.1 to 10 uM incubated for 24 hrs by Western blot analysis. Type of data set: functional, cell-based. Particulars: dose 0.1-10 µM. On the technique in general: Immunoblotting shows a protein as a band on a membrane.
Data set [8] in a line: Toxicity in Balb/c mouse xenografted with human MDA-MB-231 cells assessed as change in body weight at 40 to 70 mg/kg, po once daily measured for 16 days. The format is organism-based. Particulars: in vivo, 384 h, dose 40-70 mg/kg, time 16 day. In general terms: A xenograft is tissue or cells of one species grown in another, often human tumour cells in immunodeficient mice.

The subject of data set [9] is MDA-MB-231. The data set can be described thus: Induction of apoptosis in human MDA-MB-231 cells assessed as cleaved caspase-3 at 0.1 to 10 uM incubated for 24 hrs by Western blot analysis. Type of data set: functional, cell-based. Particulars: dose 0.1-10 µM.
Data set [10] relates to MDA-MB-231. The data set can be described thus: Induction of apoptosis in human MDA-MB-231 cells assessed as cleaved PARP at 0.1 to 10 uM incubated for 24 hrs by Western blot analysis. The format is functional, cell-based. The note with it: dose 0.1-10 µM.
The test system of data set [11] is HCT-116. The data set can be described thus: Induction of apoptosis in human HCT-116 cells assessed as cleaved PARP at 0.1 to 10 uM incubated for 24 hrs by Western blot analysis. Type of data set: functional, cell-based. Particulars: dose 0.1-10 µM.
The test system of data set [12] is MDA-MB-231. Nature of the data set: Antitumor activity against human MDA-MB-231 cells xenografted in Balb/c mouse assessed as decrease in ki67 at 40 to 70 mg/kg, po once daily measured for 16 days by Immunohistochemical analysis. Type of data set: functional, organism-based. The note with it: dose 40-70 mg/kg, time 16.0 day.
The test system of data set [13] is MDA-MB-231. Nature of the data set: In vivo antitumor activity against human MDA-MB-231 cells xenografted in Balb/c mouse assessed as tumor volume at 70 mg/kg, po once daily measured for 16 days (reference value: 600 mm^3). The format is functional. The note with it: time 16.0 day.
In data set [14] the target is T1, Mitogen-activated protein kinase; ERK1/ERK2 (Homo sapiens). Nature of the data set: Inhibition of ERK1/2 autophosphorylation in human MDA-MB-231 cells at 0.5 to 5 uM incubated for 24 hrs by Western blot analysis. Type of data set: cell-based. Particulars: dose 0.5-5 µM.
Data set [15] relates to MDA-MB-231. The data set can be described thus: In vivo antitumor activity against human MDA-MB-231 cells xenografted in Balb/c mouse assessed as reduction in tumor mass at 40 to 70 mg/kg, po once daily measured for 16 days. The format is functional, organism-based. The note with it: dose 40-70 mg/kg, time 16.0 day.
Data set [16] deals with MDA-MB-231. Nature of the data set: In vivo antitumor activity against human MDA-MB-231 cells xenografted in Balb/c mouse assessed as tumor volume at 40 mg/kg, po once daily measured for 16 days (reference value: 600 mm^3). Particulars: time 16.0 day. Type of data set: functional.
The test system of data set [17] is HCT-116. The data set can be described thus: Antiproliferative activity against human HCT-116 cells assessed as growth inhibition measured after 72 hrs by CellTiter-Glo assay. The note with it: Homo sapiens, HCT-116. Type of data set: functional.
The next data set addresses CYP2D6 (Homo sapiens, UniProt P10635). The data set can be described thus: Inhibition of CYP2D6 (unknown origin) at 10 uM relative to control. The format is ADME.
Data set [18] can be described thus: Antiproliferative activity against human A375P cells assessed as growth inhibition measured after 72 hrs by CellTiter-Glo assay. The note with it: Homo sapiens, A375P. The format is functional.
The target in the next data set is CYP2C9 (Homo sapiens, UniProt P11712). The data set can be described thus: Inhibition of CYP2C9 (unknown origin) at 10 uM relative to control. The format is ADME.
CYP2C9, sequence (P11712 whole entry): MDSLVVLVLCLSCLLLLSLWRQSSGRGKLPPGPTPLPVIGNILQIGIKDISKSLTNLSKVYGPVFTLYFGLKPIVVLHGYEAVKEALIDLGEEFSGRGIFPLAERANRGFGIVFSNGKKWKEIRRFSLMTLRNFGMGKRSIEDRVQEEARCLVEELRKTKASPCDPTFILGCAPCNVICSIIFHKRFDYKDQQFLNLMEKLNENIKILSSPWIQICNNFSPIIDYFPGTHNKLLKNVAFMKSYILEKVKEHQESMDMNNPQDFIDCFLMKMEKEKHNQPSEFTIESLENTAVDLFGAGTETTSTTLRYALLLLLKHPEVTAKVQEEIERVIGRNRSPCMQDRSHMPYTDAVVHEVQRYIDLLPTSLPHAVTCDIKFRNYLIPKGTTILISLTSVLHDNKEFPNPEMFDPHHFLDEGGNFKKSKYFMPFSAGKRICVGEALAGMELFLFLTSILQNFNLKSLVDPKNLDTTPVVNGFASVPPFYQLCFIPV
The next data set has as its target CYP3A4 (Homo sapiens, UniProt P08684). The data set can be described thus: Inhibition of CYP3A4 (unknown origin) at 10 uM relative to control. The format is ADME.
In another data set the target is T2, CYP1A2 (Homo sapiens, UniProt P05177).
T2 sequence (P05177 whole entry): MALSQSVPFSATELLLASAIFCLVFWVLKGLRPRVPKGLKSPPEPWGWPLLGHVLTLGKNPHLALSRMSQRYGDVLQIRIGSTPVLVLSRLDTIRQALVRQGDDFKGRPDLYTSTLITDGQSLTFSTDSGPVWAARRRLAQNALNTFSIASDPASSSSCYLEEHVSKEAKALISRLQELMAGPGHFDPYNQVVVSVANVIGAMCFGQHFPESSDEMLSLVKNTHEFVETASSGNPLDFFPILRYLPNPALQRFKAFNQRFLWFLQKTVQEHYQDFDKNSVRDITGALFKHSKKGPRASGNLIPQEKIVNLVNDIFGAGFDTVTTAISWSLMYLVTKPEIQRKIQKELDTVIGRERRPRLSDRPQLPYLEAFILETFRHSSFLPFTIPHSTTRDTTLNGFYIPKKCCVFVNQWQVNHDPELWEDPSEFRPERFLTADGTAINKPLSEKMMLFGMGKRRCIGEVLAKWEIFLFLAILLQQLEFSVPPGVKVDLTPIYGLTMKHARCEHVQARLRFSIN
The data set can be described thus: Inhibition of CYP1A2 (unknown origin) at 10 uM relative to control. The format is ADME.

A further data set relates to MV4-11. The data set can be described thus: In vivo antitumor activity against human MV4-11 cells xenografted in mouse assessed as tumor weight at 20 mg/kg, po relative to control. The format is functional, organism-based.
For data set [19], the system named is BaF3. Nature of the data set: Antiproliferative activity against mouse Ba/F3 cells harbouring FLT3 ITD F691I mutant assessed as growth inhibition measured after 72 hrs by CellTiter-Glo assay. The format is functional. Particulars: Mus musculus, BaF3.
The subject of data set [20] is BaF3. The data set can be described thus: Antiproliferative activity against mouse Ba/F3 cells harbouring FLT3 ITD D835Y mutant assessed as growth inhibition measured after 72 hrs by CellTiter-Glo assay. Type of data set: functional. Particulars: Mus musculus, BaF3.
The subject of data set [21] is BaF3. The data set can be described thus: Antiproliferative activity against mouse Ba/F3 cells harbouring FLT3 ITD mutant assessed as growth inhibition measured after 72 hrs by CellTiter-Glo assay. Particulars: Mus musculus, BaF3. Type of data set: functional.
The test system of data set [22] is BaF3. The data set can be described thus: Antiproliferative activity against mouse Ba/F3 cells harbouring FLT3 D835Y mutant assessed as growth inhibition measured after 72 hrs by CellTiter-Glo assay. Type of data set: functional. The note with it: Mus musculus, BaF3.
Data set [23] relates to BaF3. Nature of the data set: Antiproliferative activity against mouse Ba/F3 cells harbouring FLT3 ITD F691L mutant assessed as growth inhibition measured after 72 hrs by CellTiter-Glo assay. The note with it: Mus musculus, BaF3. The format is functional.
The test system of data set [24] is BaF3. Nature of the data set: Antiproliferative activity against mouse Ba/F3 cells assessed as growth inhibition measured after 72 hrs by CellTiter-Glo assay. The format is functional. Particulars: Mus musculus, BaF3.

Activity calls are given as the source filed them. The calls are words filed in the database; no cut-off is given here.

T1 sequence (P27361 whole entry, looked up): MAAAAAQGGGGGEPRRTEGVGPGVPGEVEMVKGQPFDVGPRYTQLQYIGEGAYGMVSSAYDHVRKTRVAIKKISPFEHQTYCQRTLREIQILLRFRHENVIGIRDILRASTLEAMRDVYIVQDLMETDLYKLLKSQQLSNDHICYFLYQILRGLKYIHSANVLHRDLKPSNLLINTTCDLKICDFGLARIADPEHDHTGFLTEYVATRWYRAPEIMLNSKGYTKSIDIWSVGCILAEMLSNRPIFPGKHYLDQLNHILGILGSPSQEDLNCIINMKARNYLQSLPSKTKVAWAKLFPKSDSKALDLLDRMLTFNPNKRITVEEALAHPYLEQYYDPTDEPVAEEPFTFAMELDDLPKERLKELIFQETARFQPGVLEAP
T1 sequence (P28482 whole entry, looked up): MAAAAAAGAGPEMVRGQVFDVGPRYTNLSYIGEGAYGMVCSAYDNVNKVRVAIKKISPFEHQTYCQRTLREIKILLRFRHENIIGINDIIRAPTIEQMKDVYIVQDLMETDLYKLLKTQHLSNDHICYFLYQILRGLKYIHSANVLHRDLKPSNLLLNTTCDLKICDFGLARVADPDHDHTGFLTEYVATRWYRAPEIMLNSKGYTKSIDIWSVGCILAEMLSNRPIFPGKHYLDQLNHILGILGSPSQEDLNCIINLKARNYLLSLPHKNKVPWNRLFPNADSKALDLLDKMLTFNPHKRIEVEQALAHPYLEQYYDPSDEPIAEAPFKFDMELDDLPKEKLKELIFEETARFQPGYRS
CYP2D6, sequence (P10635 whole entry): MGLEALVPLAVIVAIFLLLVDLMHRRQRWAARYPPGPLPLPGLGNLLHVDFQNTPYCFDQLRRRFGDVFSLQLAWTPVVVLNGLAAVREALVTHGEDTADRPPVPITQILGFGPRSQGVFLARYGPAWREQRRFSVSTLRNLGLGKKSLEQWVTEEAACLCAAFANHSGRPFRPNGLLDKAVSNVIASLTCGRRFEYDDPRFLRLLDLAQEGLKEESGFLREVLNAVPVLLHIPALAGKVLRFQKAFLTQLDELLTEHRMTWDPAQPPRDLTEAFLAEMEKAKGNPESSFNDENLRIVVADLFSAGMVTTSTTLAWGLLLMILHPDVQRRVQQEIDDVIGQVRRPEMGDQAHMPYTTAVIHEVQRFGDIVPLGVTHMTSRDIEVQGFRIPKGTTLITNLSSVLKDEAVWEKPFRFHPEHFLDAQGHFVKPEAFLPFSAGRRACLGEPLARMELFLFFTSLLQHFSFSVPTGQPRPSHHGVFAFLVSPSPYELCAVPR
CYP3A4, sequence (P08684 whole entry): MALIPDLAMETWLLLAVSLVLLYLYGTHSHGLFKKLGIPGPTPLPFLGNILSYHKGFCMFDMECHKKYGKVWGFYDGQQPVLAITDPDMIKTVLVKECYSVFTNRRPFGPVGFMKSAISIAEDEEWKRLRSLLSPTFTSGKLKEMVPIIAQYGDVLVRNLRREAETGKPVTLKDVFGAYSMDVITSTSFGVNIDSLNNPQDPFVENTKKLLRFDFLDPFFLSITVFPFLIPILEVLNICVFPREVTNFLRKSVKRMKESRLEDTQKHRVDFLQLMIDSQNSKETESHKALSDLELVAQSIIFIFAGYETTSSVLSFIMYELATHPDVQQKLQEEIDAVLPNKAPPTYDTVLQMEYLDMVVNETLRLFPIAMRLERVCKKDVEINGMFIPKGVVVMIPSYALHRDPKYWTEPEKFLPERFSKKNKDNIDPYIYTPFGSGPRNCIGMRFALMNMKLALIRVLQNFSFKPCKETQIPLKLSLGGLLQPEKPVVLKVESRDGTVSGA

For the compound `CN(c1ncccc1CNc1nc(Nc2ccc3c(c2)CC(=O)N3)ncc1C(F)(F)F)S(C)(=O)=O` [PF-00562271], the result in the data set on MDA-MB-231 [1], with MDA-MB-231 [4], in the data set with MDA-MB-231 [6], in the data set on HCT-116 [7], with MDA-MB-231 [9] and in the data set on MDA-MB-231 [10] was Active. Moreover, the result with HCT-116 [11], in the data set with MDA-MB-231 [12], with MDA-MB-231 [13], in the data set with MDA-MB-231 [15] and with MDA-MB-231 [16] was Active. Moreover, the inhibition entry in data set [2] and in data set [14] was “inactive” in each case. Besides, the GI50 – broadly, the concentration giving 50% growth inhibition – in the data set with MDA-MB-231 [3] was 1950 nM; with HCT-116 [17] it was 1140 nM; in data set [18], 10200 nM. In addition, in the data set with MDA-MB-231 [5], the “growth inhibition (GI)” value is “Active”. The Activity result in [8] was “Non-Toxic”. The inhibition (in general, the percentage by which the read-out fell short of the control) at 10 µM at CYP2D6 was found to be 90.5%; against CYP2C9, 42.7%; against CYP3A4 it was 47.2%; against CYP1A2, 91.2%.

For `CNC(=O)c1cc(Oc2ccc(NC(=O)Nc3ccc(Cl)c(C(F)(F)F)c3)cc2)ccn1` [SORAFENIB], the outcome in the data set on MV4-11 was Active. In addition, the concentration for 50% growth inhibition (GI50) is 2640 nM in the data set on BaF3 [19]; 206 nM with BaF3 [20]; 2.8 nM in the data set on BaF3 [21]; 56.5 nM with BaF3 [22]; 1540 nM in the data set on BaF3 [23]; 5420 nM in the data set with BaF3 [24].
